This passage reports half-life and IC50 results from patent US7566739B2, “Substituted N-sulfonylaminophenylethyl-2-phenoxyacetamide compounds as VR1 receptor antagonists” (Pfizer Inc., priority 2005, dated 2009).

A short description of data set [1]: Half-life in human liver microsomes (HLM). In kind it is in vitro ADME. The note with it: human liver microsomes (HLM, HL101), 1 μM compound, 0.78 mg/mL HLM, pH 7.4, 37° C., NADPH. Here is the method:
Test compounds (1 μM) were incubated with 3.3 mM MgCl2 and 0.78 mg/mL HLM (HL101) in 100 mM potassium phosphate buffer (pH 7.4) at 37° C. on the 96-deep well plate. The reaction mixture was split into two groups, a non-P450 and a P450 group. NADPH was only added to the reaction mixture of the P450 group. An aliquot of samples of P450 group was collected at 0, 10, 30, and 60 minute time points, where the 0 minute time point indicated the time when NADPH was added into the reaction mixture of P450 group. An aliquot of samples of non-P450 group was collected at −10 and 65 minute time points. Collected aliquots were extracted with an acetonitrile solution containing an internal standard. The precipitated protein was spun down in a centrifuge (2000 rpm, 15 min). The compound concentration in supernatant was measured by LC/MS/MS system.
The half-life value was obtained by plotting the natural logarithm of the peak area ratio of compounds/internal standard versus time. The slope of the line of best fit through the points yields the rate of metabolism (k). This was converted to a half-life value using following equations: Half-life=ln 2/k Mono-Iodoacetate (MIA)-Induced OA Model
A general note: Liver microsomes are a subcellular fraction often used to study metabolism.

The target of data set [2] is human VR1 (Homo sapiens, UniProt Q8NER1). Put plainly: Human VR1 antagonist assay (Ca2+ imaging, capsaicin stimulation). In kind it is cell-based. The conditions noted are these: human VR1 expressing cells; concentration reducing capsaicin-evoked Ca2+ influx by 50%; capsaicin 300 nM; read-out: hVR1 IC50. From the text:
VR1 antagonistic activity can be determined by the Ca^2+ imaging assay using human VR1 highly expressing cells. The cells that highly express human VR1 receptors are obtainable from several different conventional methods. The one standard method is cloning from human Dorsal Root Ganglion (DRG) or kidney according to the methods such as described in the journal article; Nature, 389, pp 816-824, 1997. Alternatively VR1 receptors highly expressing human keratinocytes are also known and published in the journal article (Biochemical and Biophysical Research Communications, 291, pp 124-129, 2002). […] Such a genetic modification method was described in detail; Nat. Biotechnol., 19, pp 440-445, 2001. The cells that express human VR1 receptors were maintained in culture flask at 37° C. in an environment containing 5% CO2 until use in the assay. The intracellular Ca^2+ imaging assay to determine VR1 antagonistic activities was done according to the following procedures. The culture medium was removed from the flask and fura-2/AM fluorescent calcium indicator was added to the flask at a concentration of 5 μM in the medium. The flask was placed in CO2 incubator and incubated for 1 hour. Then the cells expressing the human VR1 receptors were detached from the flask follow by washing with phosphate buffer saline, PBS(−) and re-suspended in assay buffer. The 80 μl of aliquot of cell suspension (3.75×10^5 cells/ml) was added to the assay plate and the cells were spun down by centrifuge (950 rpm, 20° C., 3 minutes). The capsaicin-induced changes in the intracellular calcium concentration were monitored using FDSS 6000 (Hamamatsu Photonics, Japan), a fluorometric imaging system. The cell suspension in Krebs-Ringer HEPES (KRH) buffer (115 mM NaCl, 5.4 mM KCl, 1 mM MgSO4, 1.8 mM CaCl2, 11 mM D-Glucose, 25 mM HEPES, 0.96 mM Na2HPO4, pH 7.3) was pre-incubated with varying concentrations of the test compounds or KRH buffer (buffer control) for 15 minutes at room temperature under dark conditions. Then the capsaicin solution, which gives 300 nM in assay mixture, was automatically added to the assay plate by the FDSS 6000. The monitoring of the changes in the fluorescence signals (λex=340 nm/380 nm, λem=510-520 nm) was initiated at 1 minute prior to the addition of capsaicin solution or acidic buffer and continued for 5 minute.

Chain of human VR1 (Q8NER1 whole entry): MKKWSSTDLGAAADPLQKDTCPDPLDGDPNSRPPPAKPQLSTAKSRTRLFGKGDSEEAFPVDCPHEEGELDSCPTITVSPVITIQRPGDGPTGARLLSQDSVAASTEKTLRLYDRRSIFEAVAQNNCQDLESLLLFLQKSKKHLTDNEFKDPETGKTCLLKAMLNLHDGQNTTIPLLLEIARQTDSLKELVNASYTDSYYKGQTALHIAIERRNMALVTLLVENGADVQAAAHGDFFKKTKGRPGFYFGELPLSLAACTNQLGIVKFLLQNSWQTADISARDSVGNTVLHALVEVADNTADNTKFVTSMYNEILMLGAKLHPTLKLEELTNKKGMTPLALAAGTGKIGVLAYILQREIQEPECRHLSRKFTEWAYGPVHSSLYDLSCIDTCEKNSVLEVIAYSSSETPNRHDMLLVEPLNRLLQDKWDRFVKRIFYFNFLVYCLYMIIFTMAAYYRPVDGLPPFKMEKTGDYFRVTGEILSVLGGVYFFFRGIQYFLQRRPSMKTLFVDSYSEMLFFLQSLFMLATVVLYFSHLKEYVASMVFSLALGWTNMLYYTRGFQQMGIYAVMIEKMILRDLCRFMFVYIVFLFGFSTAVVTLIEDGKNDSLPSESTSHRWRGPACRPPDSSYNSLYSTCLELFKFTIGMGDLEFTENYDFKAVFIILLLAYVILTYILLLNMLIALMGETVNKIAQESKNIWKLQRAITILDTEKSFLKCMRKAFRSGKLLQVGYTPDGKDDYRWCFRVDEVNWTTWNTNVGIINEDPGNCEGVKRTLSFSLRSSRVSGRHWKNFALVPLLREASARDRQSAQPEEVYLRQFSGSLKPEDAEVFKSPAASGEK

As for `Cc1cc([C@@H](C)NC(=O)COc2cc(F)c(C(C)(C)C)c(F)c2)ccc1NS(C)(=O)=O` [Example 1, 2-(4-TERT-BUTYL-3,5-DIFLUOROPHENOXY)-N-((1R)-1-{3-METHYL-4-[(METHYLSULFONYL)AMINO]PHENYL}ETHYL)ACETAMIDE], the half-life at 1 μM in data set [1] was found to be 31 min. In addition, in data set [2], the IC50 was found to be 3.13 nM.
The like results for `C[C@@H](NC(=O)COc1cc(F)c(C(C)(C)C)c(F)c1)c1ccc(NS(C)(=O)=O)c(F)c1` [Example 2, 2-(4-TERT-BUTYL-3,5-DIFLUOROPHENOXY)-N-((1R)-1-{3-FLUORO-4-[(METHYLSULFONYL)AMINO]PHENYL}ETHYL)ACETAMIDE] were, in that order, 12 min and 31.3 nM.
In data set [1], `C[C@@H](NC(=O)COc1cc(F)c(C(C)(C)C)c(F)c1)c1ccc(NS(C)(=O)=O)cc1` [Example 3, 2-(4-TERT-BUTYL-3,5-DIFLUOROPHENOXY)-N-((1R)-1-{4-[(METHYLSULFONYL)AMINO]PHENYL}ETHYL)ACETAMIDE] registered a half-life at 1 μM of 48 min. Further, the IC50 in data set [2] stood at 34.4 nM.
For `C[C@@H](NC(=O)COc1cc(F)c(C(C)(C)C)c(F)c1)c1ccc(NS(C)(=O)=O)c(CO)c1` [Example 4, 2-(4-TERT-BUTYL-3,5-DIFLUOROPHENOXY)-N-((1R)-1-{3-(HYDROXYMETHYL)-4-[(METHYLSULFONYL)AMINO]PHENYL}ETHYL)ACETOAMIDE] the same measures were 5.8 min and 8.7 nM.
Turning to `Cc1cc([C@@H](C)NC(=O)COc2cc(F)c(C(C)(C)C(F)(F)F)c(F)c2)ccc1NS(C)(=O)=O` [Example 5, 2-[3,5-DIFLUORO-4-(2,2,2-TRIFLUORO-1,1-DIMETHYLETHYL)PHENOXY]-N-((1R)-1-{3-METHYL-4-[(METHYLSULFONYL)AMINO]PHENYL}ETHYL)ACETAMIDE], in data set [1], the half-life at 1 μM amounted to 13 min. In data set [2], the IC50 came to 7.55 nM.

One may read the half-life as the time needed for the level to fall by half in the phase considered. Read a high half-life as slow loss. One may read the IC50 as the point on the concentration scale where inhibition reaches its midpoint.
